Where a name gives a salt, the structure may show the parent alone.
Assays:
S-3769 strain = experiment: Combinational effect with antibacterial agent against Pseudomonas aeruginosa (Test Examples 2 and 4): S-3769 strain with AMK or GM at 1/4 MIC, EC99; type: cell-based; details: for EC99, S-3769 strain, AMK / EC99, S-3769 strain, GM: Table 52, Test Example 2, 16 to 20 hours culture, OD595; for EC99, S-3769 strain, AMK / EC99, combinational effect with AMK, S-3769 strain: combined with AMK at 1/4 MIC; for EC99, S-3769 strain, GM / EC99, combinational effect with GM, S-3769 strain: combined with GM at 1/4 MIC; for EC99, combinational effect with AMK, S-3769 strain / EC99, combinational effect with GM, S-3769 strain: Test Example 4
Method in brief: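 EC99, the lowest test-compound concentration inhibiting growth by ≥99% (OD595), was measured with aminoglycoside AMK or GM held at ¼ MIC. Strain S-3769, a MexY-overexpressing clinical isolate, was cultured in CAMHB at 10^4 to 5 CFU/well for 16–20 h; compound range 0–800 μM.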

mexB (PA) strain = experiment: Combinational effect with antibacterial agent against Pseudomonas aeruginosa (Test Examples 2 and 4): mexB (PA) strain with LVFX, TC or AZT at 1/4 MIC, EC99; type: cell-based; details: for EC99, mexB (PA), AZT / EC99, mexB (PA), LVFX / EC99, mexB (PA), TC: Table 52, Test Example 2, 16 to 20 hours culture, OD595; for EC99, mexB (PA), AZT / EC99, combinational effect with AZT, mexB (PA): combined with AZT at 1/4 MIC; for EC99, mexB (PA), LVFX / EC99, combinational effect with LVFX, mexB (PA): combined with LVFX at 1/4 MIC; for EC99, mexB (PA), TC / EC99, combinational effect with TC, mexB (PA): combined with TC at 1/4 MIC; for EC99, combinational effect with AZT, mexB (PA) / EC99, combinational effect with LVFX, mexB (PA) / EC99, combinational effect with TC, mexB (PA): mexB (PA) strain, Test Example 4
Method in brief: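 EC99 denotes the minimum test-compound concentration (range 0–800 μM) that suppresses ≥99% of growth, measured by OD595, when combined with ¼ MIC levofloxacin (LVFX), tetracycline or aztreonam. The efflux-pump mutant mexB (PA), expressing mainly MexAB-OprM, was inoculated at 10^4–5 CFU/well in CAMHB for 16–20 h.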

Row | SMILES | EC99, S-3769 strain, AMK (S-3769 strain) | EC99, S-3769 strain, GM (S-3769 strain) | EC99, mexB (PA), AZT (mexB (PA) strain) | EC99, mexB (PA), LVFX (mexB (PA) strain) | EC99, mexB (PA), TC (mexB (PA) strain) | EC99, combinational effect with AMK, S-3769 strain (S-3769 strain) | EC99, combinational effect with GM, S-3769 strain (S-3769 strain) | EC99, combinational effect with AZT, mexB (PA) (mexB (PA) strain) | EC99, combinational effect with LVFX, mexB (PA) (mexB (PA) strain) | EC99, combinational effect with TC, mexB (PA) (mexB (PA) strain)
1 | CCOc1cccc(F)c1CN1CCN(C(=O)[C@H](N)C2CCN(CCc3cc(Cl)ccc3-c3cccc(N)c3)CC2)CC1 [Example 99, Hydrobromide of (R)-2-amino-2-(1-(2-(3′-amino-4-chloro-[1,1′-biphenyl]-2-yl)ethyl)piperidin-4-yl)-1-(4-(2-ethoxy-6-fluorobenzyl)piperazin-1-yl)ethan-1-one] | S (EC99≤12.5 μM) | S (EC99≤12.5 μM) | B (25 μM<EC99≤100 μM) | A (12.5 μM<EC99≤25 μM) | A (12.5 μM<EC99≤25 μM) |  |  |  |  | 
2 | CCSc1cc(F)ccc1CN1CCN(C(=O)[C@H](N)C2CCN(CCc3ncccc3-c3ccccc3)CC2)CC1 [Example 542, Hydrobromide of (R)-2-amino-1-(4-(2-(ethylthio)-4-fluorobenzyl)piperazin-1-yl)-2-(1-(2-(3-phenylpyridin-2-yl)ethyl)piperidin-4-yl)ethan-1-one] |  |  |  |  |  | B (25 μM<EC99≤100 μM) | B (25 μM<EC99≤100 μM) | B (25 μM<EC99≤100 μM) | B (25 μM<EC99≤100 μM) | B (25 μM<EC99≤100 μM)
3 | CCOc1cccc(F)c1CN1CCN(C(=O)[C@H](N)C2CC[N+](C)(CCc3cc(Cl)ccc3-c3ccccc3)CC2)CC1 (stereo partly drawn) [Example 568, Hydrobromide of (R)-4-(1-amino-2-(4-(2-ethoxy-6-fluorobenzyl)piperazin-1-yl)-2-oxoethyl)-1-(2-(4-chloro-[1,1-biphenyl]-2-yl)ethyl)-1-methylpiperidin-1-ium bromide] |  |  |  |  |  | S (EC99≤12.5 μM) | S (EC99≤12.5 μM) | C (100 μM<EC99) | C (100 μM<EC99) | C (100 μM<EC99)
4 | CCOc1cccc(F)c1CN1CCN(C(=O)[C@H](N)C2CCN(CCc3ccccc3OC)CC2)CC1 [Example 122, Hydrochloride of (R)-2-amino-1-(4-(2-ethoxy-6-fluorobenzyl)piperazin-1-yl)-2-(1-(2-methoxyphenethyl)piperidin-4-yl)ethan-1-one] | B (25 μM<EC99≤100 μM) | A (12.5 μM<EC99≤25 μM) | C (100 μM<EC99) | C (100 μM<EC99) | C (100 μM<EC99) |  |  |  |  | 
5 | CCOc1cccc(F)c1CN1CCN(C(=O)[C@H](N)C2CCN(CCc3cc(Cl)ccc3-c3ccsc3)CC2)CC1 [Example 101, Hydrobromide of (R)-2-amino-2-(1-(5-chloro-2-(thiophen-3-yl)phenethyl)piperidin-4-yl)-1-(4-(2-ethoxy-6-fluorobenzyl)piperazin-1-yl)ethan-1-one] | S (EC99≤12.5 μM) | S (EC99≤12.5 μM) | B (25 μM<EC99≤100 μM) | C (100 μM<EC99) | B (25 μM<EC99≤100 μM) |  |  |  |  | 
6 | CCOc1cccc(F)c1CN1CCN(C(=O)[C@H](N)C2CCN(CCc3cc(Cl)ccc3C3=CCCCC3)CC2)CC1 [Example 56, Hydrobromide of (R)-2-amino-2-(1-(2-(4-chloro-2′,3′,4′,5′-tetrahydro-[1,1′-biphenyl]-2-yl)ethyl)piperidin-4-yl)-1-(4-(2-ethoxy-6-fluorobenzyl)piperazin-1-yl)ethan-1-one] | A (12.5 μM<EC99≤25 μM) | A (12.5 μM<EC99≤25 μM) | B (25 μM<EC99≤100 μM) | C (100 μM<EC99) | B (25 μM<EC99≤100 μM) |  |  |  |  | 
7 | CCSc1cc(F)ccc1CN1CCN(C(=O)[C@H](N)C2CCN(CCc3cc(Cl)ccc3-c3ccccc3)CC2)CC1 [Example 30, (R)-2-amino-2-(1-(2-(4-chloro-[1,1′-biphenyl]-2-yl)ethyl)piperidin-4-yl)-1-(4-(2-(ethylthio)-4-fluorobenzyl)piperazin-1-yl)ethan-1-one] | S (EC99≤12.5 μM) | S (EC99≤12.5 μM) | S (EC99≤12.5 μM) | S (EC99≤12.5 μM) | S (EC99≤12.5 μM) |  |  |  |  | 
8 | CCOc1cccc(F)c1CN1CCN(C(=O)[C@H](N)C2CCN(CCc3cc(Cl)ccc3-c3cccc(S(F)(F)(F)(F)F)c3)CC2)CC1 [Example 57, Hydrobromide of (R)-2-amino-2-(1-(2-(4-chloro-3′-(pentafluoro-λ6-sulfanyl)-[1,1′-biphenyl]-2-yl)ethyl)piperidin-4-yl)-1-(4-(2-ethoxy-6-fluorobenzyl)piperazin-1-yl) ethan-1-one] | B (25 μM<EC99≤100 μM) | B (25 μM<EC99≤100 μM) | C (100 μM<EC99) | C (100 μM<EC99) | B (25 μM<EC99≤100 μM) |  |  |  |  | 
9 | CCOc1cccc(F)c1CN1CCN(C(=O)[C@H](N)C2CCN(CCc3cc(Cl)ccc3-c3csc4ccccc34)CC2)CC1 [Example 550, Hydrobromide of (R)-2-amino-2-(1-(2-(benzo[b]thiophen-3-yl)-5-chlorophenethyl)piperidin-4-yl)-1-(4-(2-ethoxy-6-fluorobenzyl)piperazin-1-yl)ethan-1-one] |  |  |  |  |  | A (12.5 μM<EC99≤25 μM) | A (12.5 μM<EC99≤25 μM) | A (12.5 μM<EC99≤25 μM) | S (EC99≤12.5 μM) | A (12.5 μM<EC99≤25 μM)
10 | CCOc1cccc(F)c1CN1CCN(C(=O)[C@H](N)C2CCN(CCc3cc(F)ccc3-c3ccccc3)CC2)CC1 [Example 50, Hydrobromide of (R)-2-amino-1-(4-(2-ethoxy-6-fluorobenzyl)piperazin-1-yl)-2-(1-(2-(4-fluoro-[1,1′-biphenyl]-2-yl)ethyl)piperidin-4-yl)ethan-1-one] | B (25 μM<EC99≤100 μM) | A (12.5 μM<EC99≤25 μM) | B (25 μM<EC99≤100 μM) | C (100 μM<EC99) | B (25 μM<EC99≤100 μM) |  |  |  |  | 

Reference: patent US20250326744A1, “PIPERAZINE DERIVATIVE OR SALT THEREOF, AND PHARMACEUTICAL COMPOSITION” (priority 2022, published 2025)
